This note sets out measurements from patent EP2444396A1, “PHOTOPROTECTIVE COMPOSITION” (Apoteknos Para La Piel, S.L., priority 2009, dated 2010).

This assay has as its target T1, estrogen receptor alpha (ERα) (Homo sapiens, UniProt P03372).
T1 construct: which endogenously express the estrogen receptor alpha (ERα); endogenous in cells; host or cells: MELN (MCF-7 stably transfected with ERE-βGlob-Luc-SV-Neo)
T1 sequence (P03372 1-595): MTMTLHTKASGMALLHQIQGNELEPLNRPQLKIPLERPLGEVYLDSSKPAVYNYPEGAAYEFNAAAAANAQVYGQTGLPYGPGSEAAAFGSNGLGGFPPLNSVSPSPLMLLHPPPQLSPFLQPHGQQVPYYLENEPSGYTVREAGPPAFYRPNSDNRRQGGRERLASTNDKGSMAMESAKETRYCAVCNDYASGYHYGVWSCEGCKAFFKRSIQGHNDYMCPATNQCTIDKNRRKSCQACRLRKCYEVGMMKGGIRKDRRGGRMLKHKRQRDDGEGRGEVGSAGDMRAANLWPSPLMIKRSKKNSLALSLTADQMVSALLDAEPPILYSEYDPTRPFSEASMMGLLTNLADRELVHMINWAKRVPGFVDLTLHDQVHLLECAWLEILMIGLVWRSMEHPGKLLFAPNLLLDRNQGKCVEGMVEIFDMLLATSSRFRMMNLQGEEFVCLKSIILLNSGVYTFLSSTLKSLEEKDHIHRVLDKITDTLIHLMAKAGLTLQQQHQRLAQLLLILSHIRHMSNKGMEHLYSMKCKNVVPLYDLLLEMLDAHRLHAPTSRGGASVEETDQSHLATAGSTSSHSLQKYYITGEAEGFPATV
The experiment in a line: Estrogenicity reporter gene bioassay (luciferase activity) in MELN cells. The assay is classed as cell-based. An excerpt: Briefly, the transactivation bioassay (Reporter gene assay) used are based on the use of breast and uterine cancer cell lines transfected with different native or modified hormone receptors. The resulting cell lines further contain a reporter gene regulated by estrogens through the estrogen response element, the globin promoter and the luciferase gene.
MELN cells were obtained by means of transfecting the MCF-7 breast cancer cell line [which endogenously express the estrogen receptor alpha (ERα)] with an estrogen sensitive response element (ERE-βGlob-Luc-SV-Neo). The selection of clones resistant to geneticin was performed using a concentration of 1 mg/mL. The maintenance medium for this cell line is DMEM F12 (Dulbecco's modified Eagle medium) with phenol red supplemented with 10% FBS, 1% of penicillin/streptomycin and 1 mg/mL of geneticin. Due to the estrogenic activity of the phenol red and FBS, the experiments are preformed in medium known as experimental medium, i.e., a culture medium without phenol red and with FBS lacking of estrogens. The experimental medium for this line is DMEM without phenol red supplemented with 3% of FBS treated with carbon-dextran.
The cells were seeded at a density of 5x10^4 cells per well in white opaque 96 well plates in 150 µL of experimental medium. After 8 hours, the compounds to be assayed (p-nitrolophine and estradiol) were prepared (concentrated 4x) in the same medium and were added to each well (50 µl). The cells were incubated for 16 hours at 37°C. At the end of the incubation, the medium was removed and replaced with fresh medium containing […] luciferin [at that concentration, luciferin diffuses into cell producing a luminescent signal which is stable after 5 minutes and for at least 2 hours]. The plates were then introduced in the luminometer to measure the luminescence for 2 seconds. A YicroBeta Trilux luminometer (EGG Wallac) apparatus was used to detect luciferase activity.
The assays were preformed in quadruple for each concentration (0.01-10 µM) in at least three independent experiments. […] The values of luciferase activity obtained were analyzed using the one-way ANOVA statistic test. The differences were considered significant when P was less than […] (P < 0.05).
(In general: In a reporter assay the amount or activity of a reporter protein is the signal.)

`O=[N+]([O-])c1ccc(-c2nc(-c3ccccc3)c(-c3ccccc3)[nH]2)cc1` [p-nitrolophine, 2-(4-nitrophenyl)-4,5-diphenyl-1H-imidazole] displayed an activity at 0.01 µM of 15.2 ± 0.6%, an activity at 0.03 µM of 15.3 ± 0.5%, an activity at 0.1 µM of 15.6 ± 0.3% and an activity at 0.3 µM of 15.5 ± 0.9%. The molecule also displayed an activity at 1 µM of 16 ± 0.4%, an activity at 3 µM of 15.2 ± 0.4% and an activity at 10 µM of 15.6 ± 0.9%. Besides, under “MELN cells, up to 10 µM, conclusion in words”, the estrogenicity entry is “not an estrogenic compound”.
